Measurements as given in patent publication US20250367329A1, “GENE THERAPY FOR TREATING MITOCHONDRIAL STRESS” (YISSUM RESEARCH DEVELOPMENT COMPANY OF THE HEBREW …, priority 2023, published 2025).

Test system: E6/E7LOW human hepatocytes
Assay: Puromycin toxicity curves, LIVE/DEAD assay
Type: cell-based
Details: 653 (female) genotype
Experimental: E6/E7LOW human hepatocytes puromycin toxicity curves: Puromycin (13884, Cayman chemical) was two-fold serially diluted from 10 μg/ml to 0.3 μg/ml in proliferation medium and applied to E6/E7LOW human hepatocytes growing in 96-well plate format. The cells were monitored and imaged daily and on the 3rd day post exposure were analyzed with a LIVE/DEAD assay (L3224, ThermoFischer). The puromycin concentration killing practically all cells in ˜3 days was defined as 2.5 μg/ml for the 653 (female) genotype and 5 µg/ml for the 422 (male) genotype cells.

COc1ccc(C[C@H](N)C(=O)N[C@H]2[C@@H](O)[C@H](n3cnc4c(N(C)C)ncnc43)O[C@@H]2CO)cc1 [Puromycin]
puromycin concentration killing practically all cells in ˜3 days: 2.5 µg/mL
